Reference: article PMC3791473 (Nature Communications, 2013)
Peptide text beside a SMILES is read from it.

biological target: T1, Ptr2p (Saccharomyces cerevisiae, UniProt P32901); assay: Fluorescence-based competitive uptake; assay type: cell-based; conditions: not given
T1 sequence (P32901 1-601): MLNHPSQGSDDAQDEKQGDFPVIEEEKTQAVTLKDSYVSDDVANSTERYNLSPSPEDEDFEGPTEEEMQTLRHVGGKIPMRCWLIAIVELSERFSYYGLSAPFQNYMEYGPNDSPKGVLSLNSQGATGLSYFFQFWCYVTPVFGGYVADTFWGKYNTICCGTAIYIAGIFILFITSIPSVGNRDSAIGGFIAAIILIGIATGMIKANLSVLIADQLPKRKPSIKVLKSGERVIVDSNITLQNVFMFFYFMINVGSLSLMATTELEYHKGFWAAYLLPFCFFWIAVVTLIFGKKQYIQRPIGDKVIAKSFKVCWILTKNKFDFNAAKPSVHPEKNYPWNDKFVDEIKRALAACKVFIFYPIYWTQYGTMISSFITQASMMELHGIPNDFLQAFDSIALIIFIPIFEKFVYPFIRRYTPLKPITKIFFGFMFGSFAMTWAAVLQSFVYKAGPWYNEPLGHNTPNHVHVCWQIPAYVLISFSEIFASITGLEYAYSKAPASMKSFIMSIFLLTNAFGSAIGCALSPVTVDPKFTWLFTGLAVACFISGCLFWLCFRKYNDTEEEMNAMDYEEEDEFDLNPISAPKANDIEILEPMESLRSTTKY

Row | Compound | Ki [µM]
1 | CC(C)C[C@H](NC(=O)[C@H](C)N)C(=O)O [N-terminal A, C-terminal L, Ala–Leu] (H-Ala-Leu-OH; N-terminus and C-terminus assumed) | 310
2 | CC(C)C[C@H](NC(=O)CN)C(=O)O [N-terminal G, C-terminal L, Gly-Leu] | 600
3 | CC(C)C[C@H](NC(=O)[C@@H](N)Cc1c[nH]cn1)C(=O)O [N-terminal H, C-terminal L, His–Leu] (H-His-Leu-OH; N-terminus and C-terminus assumed) | 50
4 | N[C@@H](Cc1c[nH]c2ccccc12)C(=O)N[C@@H](Cc1ccccc1)C(=O)O [N-terminal W, C-terminal F, Trp-Phe] (H-Trp-Phe-OH) | 20

Now from value to compound:

Row | Ki [µM] | Compound
5 | 48000 | NCC(=O)NCC(=O)NCC(=O)O [Gly–Gly–Gly] (H-Gly-Gly-Gly-OH; N-terminus and C-terminus assumed)
6 | 400 | C[C@H](N)C(=O)N[C@@H](C)C(=O)O [N-terminal A, C-terminal A, Ala–Ala] (H-Ala-Ala-OH; N-terminus and C-terminus assumed)
7 | 360 | CC(C)C[C@H](N)C(=O)NCC(=O)O [N-terminal L, C-terminal G, Leu-Gly] (H-Leu-Gly-OH; N-terminus and C-terminus assumed)
8 | 130 | CC(C)C[C@H](N)C(=O)N[C@@H](Cc1c[nH]cn1)C(=O)O [N-terminal L, C-terminal H, Leu-His] (H-Leu-His-OH; N-terminus and C-terminus assumed)

same assay, conditions: SC-Ptr2p cells

Row | competitive inhibition of β-Ala–Lys (AMCA) uptake | Compound
9 | inhibited | carnosine [reference compound]

same assay, conditions: read-out: Km of β-Ala–Lys (AMCA) uptake; SC-Ptr2p cells; (±s.d.)

Row | Km [µM] | Compound
10 | 160 | β-Ala–Lys (AMCA) [reference compound]
